In patent publication US20100184771A1, “Bicyclic Heterocyclic Compound” (ONO PHARMACEUTICAL CO., LTD., priority 2005, published 2010):

What was measured:
human CRF receptor I [1] = biological target: T1, human CRF receptor I (Homo sapiens, UniProt P34998); experiment: Receptor antagonistic activity (cyclic AMP assay); assay type: cell-based; details: human/rat CRF stimulation, 37° C., 15 minutes; read-out: IC50 value, antagonistic activity against CRF (accumulated cyclic AMP)
T1 construct: expressed in transfected cells; host or cells: CHO-K1
T1 sequence (P34998 24-415): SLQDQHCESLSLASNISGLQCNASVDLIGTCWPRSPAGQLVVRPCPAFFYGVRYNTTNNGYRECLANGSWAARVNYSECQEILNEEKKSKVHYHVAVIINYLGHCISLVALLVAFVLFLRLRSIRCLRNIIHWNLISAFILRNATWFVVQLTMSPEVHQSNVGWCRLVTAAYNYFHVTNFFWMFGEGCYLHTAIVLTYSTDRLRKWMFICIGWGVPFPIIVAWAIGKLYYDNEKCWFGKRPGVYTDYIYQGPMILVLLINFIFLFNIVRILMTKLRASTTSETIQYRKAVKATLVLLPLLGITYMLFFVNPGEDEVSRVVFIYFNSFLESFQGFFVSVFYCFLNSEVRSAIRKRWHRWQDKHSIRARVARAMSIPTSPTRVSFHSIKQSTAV
Procedure: The forced expression cell strain of the human CRF receptor I was cultured at 37° C. under 5% carbon dioxide and 95% air by using a Ham's F-12 medium (F-12 nutrient mixture) containing 10% bovine fetal serum and 1% antibiotic substance-antifungal agent. On the previous day before the cyclic AMP was measured, the cells were inoculated into a 96-well plate in an amount of 1×10^4 cell/well. On the measurement day, the cells were washed twice with a Ham's F-12 medium, whereby a solution of Ham's F-12 medium/1 mM 3-isobutyl-1-methylxanthine (assay medium) (178 μL) was added to each well. After the incubation at 37° C. for 10 minutes, test drug solutions (2 μL) in various concentrations were added thereto, or DMSO (2 μL) was added to a CRF group and a blank group. An assay medium (20 μL) containing 10 nM human/rat CRF was added to wells of a compound group and the CRF group. An assay medium (20 μL) containing 0.00001% acetic acid was added to the blank group. Each group was further incubated at 37° C. for 15 minutes. […] The accumulated cyclic AMP amounts were calculated by subtracting mean values of corresponding 2 wells in the blank group from that of 2 wells. The IC50 values were calculated with non-linear regression analysis by defining logarithm concentration of the compound as independent variable and an accumulated cyclic AMP amount as dependent variable.

human CRF receptor I [2] = biological target: T1, human CRF receptor I; experiment: Binding assay (125I-CRF, membrane fraction of CHO-K1 cells with forced expression of the receptor); details: 125I-CRF 0.25 nM, room temperature, 2 hours
Procedure: The forced-expression cell strain of the human CRF receptor I (parent strain is CHO-K1 cell) was cultured until the cell was confluent and collected with a scraper. The collected cells were washed twice with PBS, and were suspended with an ice-colded binding assay buffer (Tris-HCl (50 mM, pH 7.0), EDTA (2 mM, pH 8.0), and MgCl2 (10 mM)). After fractured with a dounce-type homogenizer, the suspended cells were centrifuged at 10,000 g, and a membrane fraction was collected. The collected membrane fraction was resuspended with a little amount of the binding assay buffer, thereafter diluted with the binding assay buffer so as to have a concentration of 1 mg/mL. The obtained membrane fraction was used for a binding assay.
^125I-CRF was diluted with the binding assay buffer so as to have a concentration of 0.5 nM, whereby 50 μL of the diluted ^125I-CRF was added to a siliconized 1.5-mL tube. Next, test drugs diluted at appropriate times, such as DMSO (for general binding) or 100 μM of CRF (for non-specific binding), was added to a […]. Finally, 50 μL of the membrane fraction was added thereto and the reaction was started (final concentration of ^125I-CRF was 0.25 nM). The tube was incubated at room temperature for 2 hours. […] A membrane binding count was measured using a γ counter. The specific binding count was obtained by subtracting the non-specific count from the measured count.

swim-stressed SD rat = experiment: Elevated plus maze test with swim-stressed rat; assay type: in vivo; details: orally, 1 hour before the test
Procedure: 2 open arms with the same lengths (50×10 cm) and 2 close arms (a 30 cm wall was provided) with the same lengths (50×10 cm) were arranged in orthogonal manner at a height of 50 cm from the floor to provide an elevated crossroad maze system. In 70 cm above the both open arms, white light was provided, whereby illuminance was maintained at constant.
A 7-week-old SD rat (CHARLES RIVER LABORATORIES JAPAN) was forcedly made to swim for 120 seconds in a pool (40×30×38 cm) at 22° C. of water temperature and 25 cm of water depth. After 9 minutes of soaking stress loading, the rat was put on the center of the system. The activity for 5 minutes of the rat was analyzed with an automatic activity-tracking analysis system (EthoVision Version 3.0, Noldus Information Technology) to calculate the dwell time (second) on the open arm.
Note that no soaking stress was loaded on the control group. In addition, 20% Solutol/HS15 (5 mL/Kg) was orally administered to the vehicle group and test drugs in various concentrations were orally administrated to the test drug administration group 1 hour before the test.

CCC(CC)c1cc(C)n2nc(-c3ccc(OC)cc3C)c(C)cc12 [Example 8, 5-(1-ethylpropyl)-2-(4-methoxy-2-methylphenyl)-3,7-dimethylpyrrolo[1,2-b]pyridazine] was tested, and the IC50 (human CRF receptor I [1]) was 0.0049 µM, the IC50 (human CRF receptor I [2]) was 0.0164 µM and the “dwell time on the open arm compared to that of the vehicle group” value (swim-stressed SD rat; 10 mg/kg) was “favorably elongated the dwell time on the open arm”. The “dwell time on the open arm compared to that of the vehicle group” value (swim-stressed SD rat) was “favorably elongated the dwell time on the open arm”.
